The source of these data is US20100331363A1, “TREATMENT OF MITOCHONDRIAL DISORDERS USING A FARNESYL TRANSFERASE INHIBITOR” (Link Medicine Corporation, priority 2008, published 2010).

Data set [1] concerns LC3-II protein. The data set is described as follows: LC3-II protein level in SH-SY5Y cells with or without bafilomycin A1. The data set is classed as cell-based, human. The settings on record: bafilomycin A1 10 nM alone. On the procedure: The observed increase in LC3-positive autophagosomes could result, in principle, from either an increased flux through the autophagy pathway or decreased autophagosome degradation (Pankiv, S., et al. J Biol Chem 282, 24131-24145 (2007); Kamada, Y., et al. J Cell Biol 150, 1507-1513 (2000)). […] In order to ascertain an increase in autophagic flux, cells were co-treated with LNK-754-TS and an inhibitor of autophagosome-lysosome fusion, bafilomycin A1 (10 nM). Bafilomycin treatment alone caused a 100% increase in the amount of LC3-II, consistent with the fact that it inhibits autophagosome degradation (FIG. 8c).

Data set [2] relates to LC3 mRNA. As to the kind of experiment: LC3 mRNA (qPCR) in SH-SY5Y cells. Type of data set: cell-based, human. The conditions noted are these: 100 nM, 72 hr, SH-SY5Y. On the procedure: (§1) Cell culture and immunocytochemistry: SH-SY5Y cells were grown in DMEM medium supplemented with 10% FBS and 1% pen/strep at 37° C. and 5% CO2. Cells were differentiated with 10 μM retinoic acid for 48 hr, then treated with the either rapamycin (100 nM or 1 μM) or with 100 nM of either LNK-754-TS or Tipifarnib for 48-72 hr. Cells were then fixed with 4% paraformaldehyde and stained for LC3 (Novus biological, NB100-2331, dilution 1:800) followed by secondary Alexa-564 anti-Rabbit (A-11011).
(§2) Quantitative real-time PCR: Gene expression profiles were done by qPCR on series of known autophagy genes. RNA was extracted with Tri-reagent (Sigma), and cDNAs generated using iScript (Biorad). qPCR analysis was carried out in a 96 well plate using an iCycler (BioRad, Hercules, Calif.), and iQ SYBR Green Supermix (Biorad) according to the manufacturer's specifications.
Such increases in LC3 mRNA levels are associated in the literature with stimulation of macroautophagy. This supports the hypothesis that at doses as low as 1 nM in this in vitro system there is stimulation of autophagy in these cells.
(§3) Autophagy was measured in a neuroblastoma cell culture system by three distinct approaches: quantitation of autophagy-related mRNA's, immunofluorescence microscopy of autophagosomes, and biochemical detection of the microtubule-associated protein 1 light chain 3 (LC3) a key protein that is required for autophagosome formation. Differentiated human neuroblastoma cells (SH-SY5Y) were treated for 72 hr with LNK-754-TS (0.01-100 nM), Zarnestra® (also referred to herein as tipifarnib) (100 nM) or rapamycin (1 μM).

Data set [3] concerns autophagy-related gene transcripts. As to the kind of experiment: mRNA of autophagy-related genes (Atg1, p62) in SH-SY5Y cells. Type of data set: cell-based, human. The conditions noted are these: 100 nM, SH-SY5Y (FIG. 8d). On the procedure:
as §2
Rapamycin is a well-characterized autophagy stimulator that acts through inhibition of mTOR, a kinase involved in nutrient signaling and regulation of cell growth and survival.

In data set [4] the target is T1, GGTase (Homo sapiens, UniProt P49354+P53609). As to the kind of experiment: GGTase inhibitory activity, general statement. Type of data set: biochemical. The settings on record: selective FTase inhibitors.
In data set [5] the target is T1, GGTase. The settings on record: at 50 micromolar; cited from earlier work.
Data set [6] can be described thus: Pharmacokinetics of Zarnestra in C57BL/6 mice, oral. The conditions noted are these: oral 5 mg/kg single dose; for MRT: read-out: MRT(0-[…]). The data set is classed as in vivo, mouse. The procedure:
LLOQ: brain 4 ng/g; plasma 50 ng/ml.
The pharmacokinetic profiles of LNK-754-TS and Zarnestra® were analyzed using methods known in the art. The results are shown in FIGS. 13-14 and the tables below.

Data set [7] relates to LC3-positive puncta (autophagosomes). The data set is described as follows: LC3 immunostaining (LC3-positive puncta) in SH-SY5Y cells. The conditions noted are these: 100 nM, SH-SY5Y (FIG. 8b). The data set is classed as cell-based, human. On the procedure: as §1, §3
For data set [8], the system named is human α-synuclein. The data set is described as follows: Masliah D-line α-synuclein transgenic mouse, α-synuclein immunoreactivity and ELISA. The settings on record: α-synuclein transgenic mice vs vehicle. The data set is classed as in vivo. On the procedure: Animals and treatments: Male and female human WT alpha-synuclein over-expressing transgenic mice^32 at 6 months of age were given vehicle (10% beta-cyclodextrin) or LNK-754-TS (0.09, 0.9 and 9 mg/kg) per oral gavage twice daily for 3 months or animals at 7 months of age were given vehicle (2.5% beta-cyclodextrin) or LNK-754-TS (2 mg/kg) once every three days for 3 months. Male and female TAU transgenic mice expressing TAU441 bearing the missense mutations V337M^50 and R406W under the control of the murine Thy-1 promoter with a CB6xC57BL/6 background were 5 months old at the time when the oral treatment for three months with LNK-754-TS (0.9 and 0.09 mg/kg) as well as vehicle (2.5% beta-cyclodextrin) was started. Female human APP/PS1 (APP (London V7171)/PS1(A246E)) over-expressing transgenic mice were treated with LNK-754-TS (0.9 mg/kg) or vehicle (2.5% beta-cyclodextrin) for 2 months or 12 days.
Immunohistochemistry and quantification of stained cells: For evaluation of α-synuclein immunoreactivity (IR), 5 sagittal cryo-cut sections (10 μm slice thickness) from five different layers were used for counting of IR cells in the cortex and hippocampus. Brain sections were stained with a monoclonal human α-synuclein specific antibody (Alexis®; Cat#804-258-L001; dilution 1:5), followed by a secondary Ab Cy 2-Goat Anti-Rat (Jackson ImmunoResearch®; dilution 1:200). IR positive cells were quantified using specialized image analysis software (Image Pro Plus, version 4.5.1.29). For Tau transgenic animals, 5 μm thick coronal paraffin sections were stained with the monoclonal mouse anti-human TAU-antibodies (AT180—1:100; HT7—1:500) and visualized using an anti-mouse Cy3 secondary antibody (1:500, Jackson Laboratories®). Images were evaluated with ImageProPlus (version 6.2) image analysis software. For APP/PS1 transgenic animals sagittal hemisections (40 μm) were collected and processed for Aβ immunohistochemistry using an 6E10 antibody, Thioflavin-S staining. Primary antibodies were detected by the ABC method.
ELISA quantification of α-Synuclein in the α-Synuclein transgenic animals: Brain homogenate was centrifuged and the supernatant saved as fraction F1. The pellet was washed then resuspended and saved as fraction F2. Plates (Nunc, 464718) were coated with SYN-1 (1:1000, BD Transduction Labs, 610787). Monomeric recombinant α-synuclein was included as an internal standard. Biotinylated antibody FL-140 (1:300, Santa Cruz Biotechnology, sc-10717-B) and ExtrAvidin-Alkaline phosphatase (3:5000, Sigma, E2636) was added followed by pNPP substrate solution (Sigma, N1891). Raw absorbance (405 nm) was then normalized to the total protein concentration of each sample. In the APP/PS1 transgenic animal, brains were homogenized and the supernatant, Faction 1, was separated from the pellet. The pellets were further processed with addition of NP40 and Triton X-100. The supernatant was separated from the pellet as the insoluble membrane, Fraction 2, and was dissolved in 8M Guanidine. To quantify the amount of human Aβ-40 and Aβ-42, ELISA kits were used (The Genetics Company, Zurich, Switzerland).
In FIG. 2 is shown efficacy data for LNK-754-TS in the Masliah D-line transgenic α-synuclein mouse (an accepted model of synucleinopathies). Two trials are shown, the first (FIG. 2A) at higher doses of LNK-754-TS: 45 mg/kg and 9 mg/kg. […] The second trial (FIG. 2B) explores the low dose range for efficacy in the α-synuclein models. Here, doses start as low as 0.9 mg/kg, and extend through 9 mg/kg, all below the efficacious dose range in the mouse oncology model.
After dosing with LNK-754-TS for three months (twice daily at 0.09 mg/kg or 0.9 mg/kg), α-synuclein accumulation in the brain was analyzed by immunohistochemical (human specific α-synuclein immunoreactivity) and biochemical (α-synuclein ELISA) means. […]

Data set [9] concerns the target FTase (Homo sapiens, UniProt P49354+P49356). The settings on record: End et al., Cancer Research 2001; cited from earlier work.

“Also recorded” adds a separate entry of the source. Read-outs that look alike come from different tables or passages of the source.

With `CO/C1=C\C(C)=C\[C@@H](C)[C@@H](O)[C@@H](C)C/C(C)=C/C=C/[C@H](OC)[C@@H]([C@@H](C)[C@@H](O)[C@H](C)[C@@]2(O)C[C@@H](O)[C@H](C)[C@@H](C(C)C)O2)OC1=O` [Bafilomycin, bafilomycin A1, reference compound], in data set [1], the “increase in the amount of LC3-II” value is listed as 100%.

As for `Cn1cncc1[C@@](N)(c1ccc(Cl)cc1)c1ccc2c(c1)c(-c1cccc(Cl)c1)cc(=O)n2C` [Zarnestra®, (R)-6-(Amino(4-chlorophenyl)(1-methyl-1H-imidazol-5-yl)methyl)-4-(3-chlorophenyl)-1-methyl-2(1H)-quinolinone], the “LC3 mRNA” value in [2] is reported as “works in this assay; also recorded: upregulated”. Also, the “LC3 mRNA” value in [2] (listed as tipifarnib) is listed as “increased”. Moreover, the “mRNA levels of a set of autophagy-related genes (incl. Atg1)” value in [3] is reported as “unaffected”. Moreover, the GGTase inhibitory activity entry in data set [4] was “little to no GGTase inhibitory activity”. For the same compound, the “inhibition of geranylgeranylation of lamin B peptide substrate by GGTase” value in [5] is listed as 40%. Also, in [6] (Brain), the “AUC(0-t)” value came to 44.50 ng·h/g and the “AUC(0-[…])” value was determined as 86.86 ng·h/g. Further, in data set [6] (mouse, Brain), the Cmax came out at 6.84 ng/g, the Tmax worked out at 1 h, the half-life was 8.1 h and the MRT came to 11.4 h. In data set [6] (mouse, plasma, Blood), the Cmax is 40.4 ng/mL, the Tmax came to 1 h, the half-life was 1.31 h and the mean residence time (MRT) came out at 1.76 h. The AUC(0-t) in [6] (mouse, plasma, Blood, read-out: AUC(0-t)) is 130 ng·h/mL. The AUC in data set [6] (mouse, plasma, Blood, read-out: AUC(0-[…])) turned out to be 131 ng·h/mL. Also, the “number of LC3-positive puncta” value in [7] was “distinct increase”. Moreover, the “number of LC3-positive puncta” value in data set [7] (listed as tipifarnib) was “increased”. Further, in data set [8], the “levels of α-synuclein in the hippocampus” value is recorded as “decrease levels of α-synuclein” and the α-synuclein inclusions result is reported as “fewer α-synuclein inclusions”. In [9], the “selectivity for FTase than GGTase” value is reported as “over 5,000 times”.
